The subject of one data set is A431 cells. As to the kind of experiment: anti-tumor activity in A431 xenograft model. Format: in vivo, A431 xenograft in B-NDG mice. The conditions noted are these: 10 mg/kg i.v. BIW x4. The method, then:
(§1) The lengths of the long axis and the short axis of the tumor were measured and the volume of the tumor was calculated as 0.5×(long axis)×(short axis)2. […] Ti is the average tumor volume in the treatment group on day i. T0 is the average tumor volume in the treatment group on day zero. Vi is the average tumor volume in the control group on day i. V0 is the average tumor volume in the control group on day zero. T-test was performed for statistical analysis. […] P<0.05 is a threshold to indicate significant difference. The body weights of the mice were also measured throughout the entire administration period.
The ADCs were tested for their effects on tumor growth in vivo in a xenograft model of epidermoid carcinoma. Specifically, about 1×10^6 A431 cells were injected subcutaneously in B-NDG mice. When the tumors in the mice reached a volume of about 200 mm^3, the mice were randomly placed into different groups based on tumor volume. The mice were then injected with PBS, antibody, or ADCs by intravenous (i.v.) administration.

Another data set deals with NCI-H292 cells. As to the kind of experiment: anti-tumor activity in NCI-H292 xenograft model. Format: in vivo, NCI-H292 xenograft in B-NDG mice. The conditions noted are these: 10 mg/kg i.v. BIW x2. The method, then:
as §1
The antibody or ADCs were tested for their effects on tumor growth in vivo in a xenograft model of lung cancer. Specifically, about 5×10^6 NCI-H292 cells were injected subcutaneously in B-NDG mice. When the tumors in the mice reached a volume of about 300 mm^3, the mice were randomly placed into different groups based on tumor volume. The mice were then injected with PBS, antibody, or ADCs by intravenous (i.v.) administration.

In a further data set the test system is Hela. As to the kind of experiment: in vitro killing activity. The class given is cell-based, Human. The conditions noted are these: 120 h incubation. The procedure:
(§2) Different concentrations of compounds CPT-1, CPT-2, CPT-3, CPT-4, Dxd (MedChem Express, Cat #: HY-13631D) and SN38 (MedChem Express, Cat #: HY-13704) were used to treat different human tumor cell lines, mice tumor cell lines, rat tumor cell lines or dog tumor cell lines cultured in a cell culture plate, respectively. And the killing activity was detected after 72 h-120 h incubation by IncuCyte (Sartorius AG, IncuCyte® S3) or MicroplateReader.

The test system of another data set is HuH-7. As to the kind of experiment: in vitro killing activity. The class given is cell-based, Human. To be noted: 120 h incubation. The procedure:
as §2

For another data set, the system named is LOVO. As to the kind of experiment: in vitro killing activity. The class given is cell-based, Human. The conditions noted are these: 120 h incubation. The procedure: as §2
Another data set concerns NCI-H1975. As to the kind of experiment: in vitro killing activity. Format: cell-based, Human. The conditions noted are these: 120 time of incubation. The method, then: as §2
The test system of a further data set is NCI-H226. As to the kind of experiment: in vitro killing activity. The conditions noted are these: 120 h incubation. The class given is cell-based, Human. The procedure:
as §2

Another data set deals with NCI-N87. As to the kind of experiment: in vitro killing activity. The class given is cell-based, Human. To be noted: 120 time of incubation. The procedure: as §2
The next data set deals with SW620. As to the kind of experiment: in vitro killing activity. To be noted: 120 h incubation. The class given is cell-based, Human. The method, then: as §2
Another data set relates to L6. As to the kind of experiment: in vitro killing activity. The class given is cell-based, Rat. To be noted: 120 h incubation. The method, then: as §2
The test system of a further data set is PC12. As to the kind of experiment: in vitro killing activity. Format: cell-based, Rat. To be noted: 120 time of incubation. The method, then: as §2
The subject of the next data set is Pgp. The conditions noted are these: cited from earlier work.
The test system of the next data set is A-431. As to the kind of experiment: in vitro killing activity. The class given is cell-based, Human. To be noted: 120 time of incubation. The method, then:
as §2

A further data set has as its system BT474. As to the kind of experiment: in vitro killing activity. The conditions noted are these: 120 time of incubation. The class given is cell-based, Human. The method, then:
as §2

Another data set has as its system BxPC-3. As to the kind of experiment: in vitro killing activity. The class given is cell-based, Human. The conditions noted are these: 120 time of incubation. The procedure:
as §2

A further data set deals with HCC1954. As to the kind of experiment: in vitro killing activity. To be noted: 120 time of incubation. The class given is cell-based, Human. The procedure: as §2
For the next data set, the system named is HS-746T. As to the kind of experiment: in vitro killing activity. Format: cell-based, Human. The conditions noted are these: 120 time of incubation. The method, then: as §2
The next data set concerns NCI-H1781. As to the kind of experiment: in vitro killing activity. Format: cell-based, Human. To be noted: 120 time of incubation. The procedure: as §2
The next data set concerns NCI-H2030. As to the kind of experiment: in vitro killing activity. The class given is cell-based, Human. The conditions noted are these: 120 time of incubation. The method, then: as §2
In the next data set the test system is NCI-H69. As to the kind of experiment: in vitro killing activity. Format: cell-based, Human. The conditions noted are these: 120 time of incubation. The procedure: as §2
The next data set concerns OVKATE. As to the kind of experiment: in vitro killing activity. Format: cell-based, Human. To be noted: 120 time of incubation. The method, then: as §2
The next data set has as its system PC-3. As to the kind of experiment: in vitro killing activity. The class given is cell-based, Human. To be noted: 120 time of incubation. The method, then:
as §2

Another data set concerns Panc 02.03. As to the kind of experiment: in vitro killing activity. Format: cell-based, Human. The conditions noted are these: 120 time of incubation. The method, then:
as §2

For the next data set, the system named is SKOV-3. As to the kind of experiment: in vitro killing activity. Format: cell-based, Human. To be noted: 120 time of incubation. The method, then: as §2
The test system of another data set is SW156. As to the kind of experiment: in vitro killing activity. Format: cell-based, Human. The conditions noted are these: 120 time of incubation. The method, then:
as §2

The subject of the next data set is U-2-OS. As to the kind of experiment: in vitro killing activity. To be noted: 120 time of incubation. Format: cell-based, Human. The method, then: as §2
The test system of another data set is CMT-U27. As to the kind of experiment: in vitro killing activity. Format: cell-based, Dog. The conditions noted are these: 120 time of incubation. The method, then: as §2
For a further data set, the system named is D17. As to the kind of experiment: in vitro killing activity. To be noted: 120 time of incubation. The class given is cell-based, Dog. The method, then: as §2
A further data set has as its system DCOL1 (S+L−). As to the kind of experiment: in vitro killing activity. The conditions noted are these: 120 time of incubation. The class given is cell-based, Dog. The procedure: as §2
A further data set relates to MP-0094-2. As to the kind of experiment: in vitro killing activity. Format: cell-based, Dog. To be noted: 120 time of incubation. The method, then: as §2
The test system of another data set is MP-0094-3. As to the kind of experiment: in vitro killing activity. To be noted: 120 time of incubation. The class given is cell-based, Dog. The procedure: as §2
A further data set concerns MP-1044-1. As to the kind of experiment: in vitro killing activity. The class given is cell-based, Dog. The conditions noted are these: 72 time of incubation. The procedure: as §2
Another data set concerns MP-1092-1. As to the kind of experiment: in vitro killing activity. Format: cell-based, Dog. The conditions noted are these: 120 time of incubation. The procedure: as §2
For a further data set, the system named is B16F10. As to the kind of experiment: in vitro killing activity. The class given is cell-based, Mice. The conditions noted are these: 75 time of incubation. The method, then:
as §2

Another data set concerns CT26. As to the kind of experiment: in vitro killing activity. The class given is cell-based, Mice. The conditions noted are these: 96 time of incubation. The procedure:
as §2

The test system of a further data set is MC38. As to the kind of experiment: in vitro killing activity. The class given is cell-based, Mice. To be noted: 120 time of incubation. The method, then: as §2

For “Sacituzumab govitecan: humanized anti-TROP2 monoclonal antibody-drug conjugate from Immunomedics, Inc”, in the data set on A431 cells, the “Tumor volume Day 17” value is listed as 682 ± 71 mm^3 and the “Tumor volume Day 31” value was determined as 1554 ± 144 mm^3. Also, the “Tumor volume Day 0” value with A431 cells (day of grouping (baseline)) stood at 197 ± 6 mm^3. For the same molecule, in the data set with NCI-H292 cells, the “Tumor volume Day 21” value is reported as 428 ± 51 mm^3 and the “Tumor volume Day 39” value worked out at 893 ± 62 mm^3. Moreover, the “Tumor volume Day 0” value in the data set with NCI-H292 cells (day of grouping (baseline)) worked out at 297 ± 11 mm^3.
Usually IC50 stands for the concentration that gives 50% inhibition. Higher therefore signals weaker potency. `CCc1c2c(nc3ccc(O)cc13)-c1cc3c(c(=O)n1C2)COC(=O)[C@]3(O)CC` [SN38, reference compound]: the half-maximal inhibitory concentration (IC50) in the data set with Hela is 6.61 nM; in the data set with HuH-7, 2.41 nM; in the data set on LOVO it was 10.2 nM; with NCI-H1975 it was 13.2 nM; in the data set on NCI-H226, 20.4 nM; with NCI-N87, 7.39 nM. Also, the half-maximal inhibitory concentration (IC50) stood at 4.6 nM in the data set on SW620, 20.8 nM in the data set on L6 and 5.66 nM in the data set on PC12. The Pgp substrate entry in the data set with Pgp is “Pgp substrates”.
As to `CC[C@@]1(O)C(=O)OCc2c1cc1n(c2=O)Cc2c-1nc1cc(F)c(C)c3c1c2[C@@H](NC(=O)CO)CC3` [Dxd, reference compound], the half-maximal inhibitory concentration (IC50) was 28.1 nM in the data set with A-431; 10.9 nM in the data set on BT474; 1.87 nM in the data set with BxPC-3; 3.31 nM with HCC1954; 1.05 nM in the data set on HS-746T; 6.69 nM in the data set with Hela. For the same molecule, the half-maximal inhibitory concentration (IC50) with HuH-7 was found to be 1.39 nM; in the data set with LOVO, 8.65 nM; in the data set with NCI-H1781, 0.724 nM; in the data set with NCI-H1975, 9.91 nM; in the data set with NCI-H2030, 6.43 nM; with NCI-H226, 22.9 nM. Further, the half-maximal inhibitory concentration (IC50) came to 0.299 nM with NCI-H69; 7.03 nM in the data set with NCI-N87; 12.3 nM in the data set on OVKATE; 6.4 nM in the data set on PC-3; 3.18 nM in the data set with Panc 02.03; 16.5 nM in the data set on SKOV-3. The IC50 with SW156 turned out to be 1.84 nM; with SW620, 3.89 nM; in the data set on U-2-OS it was 41.9 nM; in the data set on CMT-U27, 3.37 nM; in the data set with D17, 6.08 nM; in the data set with DCOL1 (S+L−), 9.05 nM. For the same molecule, the half-maximal inhibitory concentration (IC50) in the data set on MP-0094-2 is 9.67 nM; in the data set with MP-0094-3, 22 nM; in the data set on MP-1044-1 it was 41.7 nM; with MP-1092-1, 7.13 nM; with B16F10, 26.2 nM; in the data set with CT26, 94.2 nM. Besides, the IC50 is 38.5 nM with MC38, 13.8 nM in the data set with L6 and 9.19 nM with PC12. The Pgp substrate entry in the data set with Pgp was “Pgp substrates”.

These data come from US20260315611A1, “LINKER COMPOUNDS AND LIGAND-DRUG CONJUGATES, PREPARATION METHODS AND USES THEREOF” (Biocytogen Pharmaceuticals (Beijing) Co., Ltd., priority 2023, published 2026).
